Reference: PubChem BioAssay AID1963843 (Molecular Pharmacology Branch, DTP, NCI, 2024)

Tested on: 616215-338-R-J1-PDC complex spheroid viability
Test: Anticancer human tumor 616215-338-R-J1-PDC patient-derived colon adenocarcinoma cell line growth inhibition [POLQ]
Details: for IC50: curve of first compound; for viability, T/C: stronger effect = lower value
How it was run: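 Growth inhibition in 3D: complex spheroids (tumor PDC, HUVEC, MSC) treated with POLQ inhibitor combinations; where Cmax unknown, highest tested concentration 10 microM, except SN-38 at 1 microM.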

[1] = second compound 0.0316 µM, first compound 0.0316 µM
[2] = second compound 0.0316 µM, first compound 0.1 µM
[3] = second compound 0.0316 µM, first compound 0.316 µM
[4] = second compound 0.0316 µM, first compound 1 µM
[5] = second compound 0.1 µM, first compound 0.0316 µM
[6] = second compound 0.1 µM, first compound 0.1 µM
[7] = second compound 0.1 µM, first compound 0.316 µM
[8] = second compound 0.1 µM, first compound 1 µM
[9] = second compound 0.316 µM, first compound 0.0316 µM
[10] = second compound 0.316 µM, first compound 0.1 µM
[11] = second compound 0.316 µM, first compound 0.316 µM
[12] = second compound 0.316 µM, first compound 1 µM
[13] = second compound 1 µM, first compound 0.0316 µM
[14] = second compound 1 µM, first compound 0.1 µM
[15] = second compound 1 µM, first compound 0.316 µM
[16] = second compound 1 µM, first compound 1 µM
[17] = second compound 3.16 µM, first compound 0.0316 µM
[18] = second compound 3.16 µM, first compound 0.1 µM
[19] = second compound 3.16 µM, first compound 0.316 µM
[20] = second compound 3.16 µM, first compound 1 µM
[21] = second compound 10 µM, first compound 0.0316 µM
[22] = second compound 10 µM, first compound 0.1 µM
[23] = second compound 10 µM, first compound 0.316 µM
[24] = second compound 10 µM, first compound 1 µM
[25] = second compound 0.0316 µM, first compound 3.16 µM
[26] = second compound 0.0316 µM, first compound 10 µM
[27] = second compound 0.1 µM, first compound 3.16 µM
[28] = second compound 0.1 µM, first compound 10 µM
[29] = second compound 0.316 µM, first compound 3.16 µM
[30] = second compound 0.316 µM, first compound 10 µM
[31] = second compound 1 µM, first compound 3.16 µM
[32] = second compound 1 µM, first compound 10 µM
[33] = second compound 3.16 µM, first compound 3.16 µM
[34] = second compound 3.16 µM, first compound 10 µM
[35] = second compound 10 µM, first compound 3.16 µM
[36] = second compound 10 µM, first compound 10 µM
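Further: spheroids exposed to compounds for one week before readout.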
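Wherever viability, T/C is given: percent viability relative to DMSO vehicle wells taken as 100%.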

Work on `C=CCn1c(=O)c2cnc(Nc3ccc(N4CCN(C)CC4)cc3)nc2n1-c1cccc(C(C)(C)O)n1` + Cc1cccc(N(C)C(=O)C2C(O)CCN2c2nc(C)cc(C(F)(F)F)c2C#N)c1 yielded an IC50 (second compound 0.0316 µM) of 0.269 µM, an IC50 (second compound 0.1 µM) of 0.542 µM and an IC50 (second compound 0.316 µM) of 0.559 µM. It also gave an IC50 (second compound 1 µM) of 0.428 µM, an IC50 (second compound 3.16 µM) of 0.333 µM and an IC50 (second compound 10 µM) of 0.25 µM. The viability, T/C (second compound 0.0316 µM, first compound 0.00316 µM) was 110%, the viability, T/C (second compound 0.0316 µM, first compound 0.01 µM) was 87.5% and the viability, T/C [1] was 108%. It also gave a viability, T/C [2] of 86.7%, a viability, T/C [3] of 44.5% and a viability, T/C [4] of 34.3%. It also gave a viability, T/C (second compound 0.1 µM, first compound 0.00316 µM) of 102%, a viability, T/C (second compound 0.1 µM, first compound 0.01 µM) of 97.4% and a viability, T/C [5] of 85.7%. For the same molecule, the viability, T/C [6] was 93.4%, the viability, T/C [7] was 65.4% and the viability, T/C [8] was 31.2%. It also gave a viability, T/C (second compound 0.316 µM, first compound 0.00316 µM) of 97.4%, a viability, T/C (second compound 0.316 µM, first compound 0.01 µM) of 107% and a viability, T/C [9] of 91.7%. It also gave a viability, T/C [10] of 92.4%, a viability, T/C [11] of 67.8% and a viability, T/C [12] of 31.3%. For the same molecule, the viability, T/C (second compound 1 µM, first compound 0.00316 µM) was 96.8%, the viability, T/C (second compound 1 µM, first compound 0.01 µM) was 90% and the viability, T/C [13] was 92.5%. It also gave a viability, T/C [14] of 76.7%, a viability, T/C [15] of 58.4% and a viability, T/C [16] of 27.8%. The viability, T/C (second compound 3.16 µM, first compound 0.00316 µM) was 98.1%, the viability, T/C (second compound 3.16 µM, first compound 0.01 µM) was 91.1% and the viability, T/C [17] was 93.8%. It also gave a viability, T/C [18] of 90.2%, a viability, T/C [19] of 50.9% and a viability, T/C [20] of 30.9%. The viability, T/C (second compound 10 µM, first compound 0.00316 µM) was 109%, the viability, T/C (second compound 10 µM, first compound 0.01 µM) was 90.1% and the viability, T/C [21] was 90.2%. It also gave a viability, T/C [22] of 83.8%, a viability, T/C [23] of 40.9% and a viability, T/C [24] of 26.9%.

`CC1COCCN1c1cc(-c2ccnn2C)c2ccnc(-c3ccn[nH]3)c2n1` (stereo unspecified) + Cc1cccc(N(C)C(=O)C2C(O)CCN2c2nc(C)cc(C(F)(F)F)c2C#N)c1 was tested, and the IC50 (second compound 0.0316 µM) was over 10 µM, the IC50 (second compound 0.1 µM) was over 10 µM and the IC50 (second compound 0.316 µM) was over 10 µM. The IC50 (second compound 1 µM) was 2.79 µM, the IC50 (second compound 3.16 µM) was 1.99 µM and the IC50 (second compound 10 µM) was 1.24 µM. For the same molecule, the viability, T/C [1] was 104%, the viability, T/C [2] was 110% and the viability, T/C [3] was 76.7%. The viability, T/C [4] was 66.2%, the viability, T/C [25] was 49.4% and the viability, T/C [26] was 50.6%. For the same molecule, the viability, T/C [5] was 103%, the viability, T/C [6] was 100% and the viability, T/C [7] was 69.5%. For the same molecule, the viability, T/C [8] was 61.8%, the viability, T/C [27] was 50.1% and the viability, T/C [28] was 50.5%. The viability, T/C [9] was 107%, the viability, T/C [10] was 91.1% and the viability, T/C [11] was 66.3%. It also gave a viability, T/C [12] of 57.4%, a viability, T/C [29] of 52.4% and a viability, T/C [30] of 53%. It also gave a viability, T/C [13] of 101%, a viability, T/C [14] of 91% and a viability, T/C [15] of 71.9%. For the same molecule, the viability, T/C [16] was 57.1%, the viability, T/C [31] was 53% and the viability, T/C [32] was 40.8%. The viability, T/C [17] was 114%, the viability, T/C [18] was 95.2% and the viability, T/C [19] was 72.2%. For the same molecule, the viability, T/C [20] was 54%, the viability, T/C [33] was 44.1% and the viability, T/C [34] was 47.9%. It also gave a viability, T/C [21] of 111%, a viability, T/C [22] of 90.6% and a viability, T/C [23] of 68%. For the same molecule, the viability, T/C [24] was 49.2%, the viability, T/C [35] was 47.5% and the viability, T/C [36] was 36.8%.

`CC1COCCN1c1cc(C2(S(C)(=N)=O)CC2)nc(-c2ccnc3[nH]ccc23)n1` (stereo unspecified) + Cc1cccc(N(C)C(=O)C2C(O)CCN2c2nc(C)cc(C(F)(F)F)c2C#N)c1 showed an IC50 (second compound 0.0316 µM) of over 10 µM, an IC50 (second compound 0.1 µM) of over 10 µM and an IC50 (second compound 0.316 µM) of over 10 µM. For the same molecule, the IC50 (second compound 1 µM) was over 10 µM, the IC50 (second compound 3.16 µM) was over 10 µM and the IC50 (second compound 10 µM) was over 10 µM. For the same molecule, the viability, T/C [1] was 88.5%, the viability, T/C [2] was 104% and the viability, T/C [3] was 94.8%. It also gave a viability, T/C [4] of 99.7%, a viability, T/C [25] of 101% and a viability, T/C [26] of 69.1%. It also gave a viability, T/C [5] of 102%, a viability, T/C [6] of 95.1% and a viability, T/C [7] of 101%. It also gave a viability, T/C [8] of 101%, a viability, T/C [27] of 95.6% and a viability, T/C [28] of 68.2%. The viability, T/C [9] was 94.9%, the viability, T/C [10] was 98.9% and the viability, T/C [11] was 96.8%. The viability, T/C [12] was 102%, the viability, T/C [29] was 89.1% and the viability, T/C [30] was 62%. It also gave a viability, T/C [13] of 113%, a viability, T/C [14] of 102% and a viability, T/C [15] of 98.2%. It also gave a viability, T/C [16] of 101%, a viability, T/C [31] of 97% and a viability, T/C [32] of 69.1%. It also gave a viability, T/C [17] of 102%, a viability, T/C [18] of 96% and a viability, T/C [19] of 91.5%. For the same molecule, the viability, T/C [20] was 104%, the viability, T/C [33] was 86.4% and the viability, T/C [34] was 74.7%. The viability, T/C [21] was 114%, the viability, T/C [22] was 111% and the viability, T/C [23] was 103%. It also gave a viability, T/C [24] of 111%, a viability, T/C [35] of 95.7% and a viability, T/C [36] of 71.7%.
